This note sets out measurements from patent publication EP4800016A1, “METTL3 INHIBITOR” (Hangzhou Bangshun Pharmaceutical Co., Ltd., priority 2023, dated 2025).

In one assay the target is T1, METTL3/14 (Homo sapiens, UniProt Q86U44).
T1 construct: purchased active motif 31570
In words: METTL3/14 methyltransferase activity assay (HTRF). The assay is classed as biochemical. To be noted: 10 concentrations, 3-fold dilution from 10 µM. How it is done:
The final initial concentration of the compound was 10 µM, with 3-fold serial dilution to give a total of 10 concentrations. 100 nL of the compound was transferred to a 384-well plate and centrifuged at 1000 RPM. 2.5 µL of METTL3/14 (active motif, Cat No. 31570) was added to the test wells and incubated at 25°C for 10 min. 2.5 µL of METTL3-Biotin & SAM (GenScript) was added to the test wells andincubated at 25°C for 60 min. 2.5 µL of YTHDF1 (active motif, Cat No. 31608) was added to the test wells and centrifuged at 1000 RPM. 2.5 µL of Streptavidin-Tb (Perkin Elmer Cat No. 61SATLB) & Flag-mede (Perkin Elmer Cat No. 61FG2DLA) was added to the test wells and centrifuged at 1000 RPM. Incubated at 25°C for 60 min. HTRF was measured using a Plate reader. The results of each compound are shown in Table 1, where A+indicates <10nM, A indicates 10-100nM, B indicates 100-1000nM, and C indicates >1000nM.

The subject of a further assay is Kasumi-1 cells. In words: Kasumi-1 cell inhibitory activity (CellTiter-Glo, 5 days). The format is cell-based. To be noted: Homo sapiens, 120 h, 5 days incubation, CellTiter-Glo luminescence. On the procedure:
Test compounds were dissolved in DMSO to prep are a 250×final concentration solution. The initial concentration was 10 µM with 3-fold dilution, resulting in a total of ten concentration points. 4 µL of the compound solution was added to 96 µL of cell culture medium to dilute it to 10×the final concentration. On the first day, Kasumi-1 cells (purchased from Precedo) were suspended in cell culture medium at the desired density, 90 µL of the cell suspension was added to a 96-well plate, and 10 µL of 10×compound solution was added for incubation, with a final DMSO concentration of 0.4% in each well. Incubated at 37 °C, 5% CO2 for 5 days. Before measurement after 5 days, the test plate was placed at room temperature, 50 µL of CellTiter-Glo® reagent (purchased from Promega, Cat. No. G7573) was added, mixed on a shaker for 2 minutes to lyse the cells, and incubated at room temperature for 10 minutes to stabilize the […] signal. Luminescence values were recorded using Paradigm, and the response-concentration curve was fitted with Graphpad Pr ism 8.0 to calculate IC50values. The results of each compound are shown in Table2, where A indicates <100nM, B indicates 100-1000nM, and C indicates >1000nM. [formula]
Background: ATP-based viability assays read luminescence as a measure of living cells.

T1 sequence (Q86U44 whole entry): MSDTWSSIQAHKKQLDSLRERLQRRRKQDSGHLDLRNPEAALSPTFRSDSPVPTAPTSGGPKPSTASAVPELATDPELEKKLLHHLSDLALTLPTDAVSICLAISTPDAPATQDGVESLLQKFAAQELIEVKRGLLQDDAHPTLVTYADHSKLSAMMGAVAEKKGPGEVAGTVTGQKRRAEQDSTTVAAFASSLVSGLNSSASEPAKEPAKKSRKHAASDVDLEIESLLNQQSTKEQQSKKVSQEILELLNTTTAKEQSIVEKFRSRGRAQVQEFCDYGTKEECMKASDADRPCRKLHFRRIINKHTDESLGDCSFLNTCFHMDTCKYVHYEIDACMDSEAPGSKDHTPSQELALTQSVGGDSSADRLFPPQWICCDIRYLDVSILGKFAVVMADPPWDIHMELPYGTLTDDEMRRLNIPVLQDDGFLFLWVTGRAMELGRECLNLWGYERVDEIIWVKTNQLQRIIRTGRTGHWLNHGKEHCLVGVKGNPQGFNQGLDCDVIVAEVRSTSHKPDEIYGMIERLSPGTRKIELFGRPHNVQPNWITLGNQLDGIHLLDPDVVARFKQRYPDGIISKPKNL
T1 sequence (Q9HCE5 whole entry partner): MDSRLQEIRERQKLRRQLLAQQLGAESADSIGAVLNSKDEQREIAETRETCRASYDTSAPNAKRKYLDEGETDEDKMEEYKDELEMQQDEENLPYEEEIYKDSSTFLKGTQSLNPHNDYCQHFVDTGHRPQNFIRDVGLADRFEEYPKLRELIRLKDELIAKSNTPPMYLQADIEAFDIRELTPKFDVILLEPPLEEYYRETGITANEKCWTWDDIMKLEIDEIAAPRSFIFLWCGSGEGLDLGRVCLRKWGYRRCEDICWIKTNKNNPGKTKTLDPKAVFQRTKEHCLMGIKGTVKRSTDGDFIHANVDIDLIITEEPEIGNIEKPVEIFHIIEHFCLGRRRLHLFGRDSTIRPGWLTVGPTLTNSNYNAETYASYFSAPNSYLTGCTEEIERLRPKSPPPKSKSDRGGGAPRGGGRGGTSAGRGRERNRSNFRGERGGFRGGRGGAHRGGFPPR

For `O=C(NCc1ccc2cc(CNCC3CCC3)[nH]c2c1)c1cc(=O)n2cc3c(cc2n1)OCCO3` [Example 20, N-((2-(((Cyclobutylmethyl)amino)methyl)-1H-indol-6-yl)methyl)-9-oxo-2,3-dihydro-9H-[1,4]dioxolo[2',3':4,5]pyrido[1,2-a]pyrimidine-7-carboxamide], the figures for the IC50 against METTL3/14 and in the assay on Kasumi-1 cells were 0.01 to 0.1 µM and 0.1 to 1 µM, respectively.

For `O=C(NCc1ccc2cc(CNCC3CC(F)(F)C3)[nH]c2c1)c1cc(=O)n2cc3c(cc2n1)OCO3` [Example 26, N-((2-((((3,3-Difluorocyclobutyl)methyl)amino)methyl)-1H-indol-6-yl)methyl)-8-oxo-8H-[1,3]dioxolo[4',5':4,5]pyrido[1,2-a]pyrimidine-6-carboxamide], the IC50 on METTL3/14 was in the range of 0.01 to 0.1 µM; in the assay on Kasumi-1 cells, 0.1 to 1 µM.

On to `O=C(NCc1cc2[nH]c(CNCC3CCC3)cc2s1)c1cc(=O)n2cc3c(cc2n1)OCO3` [Example 32, N-((5-(((Cyclobutylmethyl)amino)methyl)-4H-thieno[3,2-b]pyrrol-2-yl)methyl)-8-oxo-8H-[1,3]dioxolo[4',5':4,5]pyrido[1,2-a]pyrimidine-6-carboxamide], for which the figures for the concentration for half-maximal inhibition (IC50) on METTL3/14 and in the assay with Kasumi-1 cells were 0.01 to 0.1 µM and 0.1 to 1 µM, respectively.

As for `O=C(NCc1ccc2cc(CNCC34CC(F)(C3)C4)[nH]c2c1)c1cc(=O)n2cc3c(cc2n1)OCO3` [Example 36, N-((2-((((3-Fluorobicyclo[1.1.1]pentan-1-yl)methyl)amino)methyl)-1H-indol-6-y1)methyl)-8-oxo-8H-[1,3]dioxolo[4',5':4,5]pyrido[1,2-a]pyrimidine-6-carboxamide], the IC50 at METTL3/14 was less than 0.01 µM; in the assay with Kasumi-1 cells, less than 0.1 µM.

As to `O=C(NCc1ccc2cc(CNC3CCC(F)(F)C3)[nH]c2c1)c1cc(=O)n2cc3c(cc2n1)OCO3` (stereo not shown) [Example 38, N-((2-(((3,3-Difluorocyclopentyl)amino)methyl)-1H-indol-6-yl)methyl)-8-oxo-8H-[1,3]dioxolo[4',5':4,5]pyrido[1,2-a]pyrimidine-6-carboxamide], the IC50 was less than 0.01 µM against METTL3/14 and 0.1 to 1 µM in the assay on Kasumi-1 cells.

Regarding `O=C(NCc1cn2cc(CNCC3CCC3)ccc2n1)c1cc(=O)n2cc3c(cc2n1)OCO3` [Example 41, N-((6-(((cyclobutylmethyl)amino)methyl)imidazo[1,2-a]pyridin-2-yl)methyl)-8-oxo-8H-[1,3]dioxolo[4',5':4,5]pyrido[1,2-a]pyrimidine-6-carboxamide], the IC50 is less than 0.01 µM on METTL3/14 and 0.1 to 1 µM in the assay on Kasumi-1 cells.

With `O=C(NCc1ccc2cc(CNCC3CCC3)[nH]c2c1)c1cn2ncc3c2c(n1)NCCO3` [Example 44, N-((2-(((Cyclobutylmethyl)amino)methyl)-1H-indol-6-yl)methyl)-7,8-dihydro-6H-9-oxa-2,2a,5,6-tetraazabenzo[cd]azulene-4-carboxamide], the 50% inhibitory concentration (IC50) against METTL3/14 fell in the range of 0.01 to 0.1 µM; in the assay on Kasumi-1 cells, 0.1 to 1 µM.

As to `O=C(NCc1ccc2cc(CNCC3CCC3)[nH]c2c1)c1cn2ncc3c2c(n1)NCCC3` [Example 45, N-((2-(((Cyclobutylmethyl)amino)methyl)-1H-indol-6-yl)methyl)-6,7,8,9-tetrahydro-2,2a,5,6-tetraazabenzo[cd]azulene-4-carboxamide], the results for the half-inhibitory concentration (IC50) against METTL3/14 and with Kasumi-1 cells were 0.01 to 0.1 µM and 0.1 to 1 µM, respectively.

For the compound `O=C(NCc1ccc2cc(CNCC34CC(F)(C3)C4)[nH]c2c1)c1cc(=O)n2cc3c(cc2n1)OCCO3` [Example 46, N-((2-((((3-Fluorobicyclo[1.1.1]pentan-1-yl)methyl)amino)methyl)-1H-indol-6-yl)methyl)-9-oxo-2,3-dihydro-9H-[1,4]dioxolo[2',3':4,5]pyrido[1,2-a]pyrimidine-7-carboxamide], the results for the IC50 on METTL3/14 and in the assay with Kasumi-1 cells were less than 0.01 µM and less than 0.1 µM, respectively.

Take `CC1(CNCc2cc3ccc(CNC(=O)c4cc(=O)n5cc6c(cc5n4)OCO6)cc3[nH]2)CCC1` [Example 51, N-((2-((((1-Methylcyclobutyl)methyl)amino)methyl)-1H-indol-6-yl)methyl)-8-oxo-8H-[1,3]dioxolo[4',5':4,5]pyrido[1,2-a]pyrimidine-6-carboxamide]: the results for the IC50 at METTL3/14 and in the assay on Kasumi-1 cells were less than 0.01 µM and 0.1 to 1 µM, respectively.

On to `CC1(CNCc2cc3ccc(CNC(=O)c4cc(=O)n5cc6c(cc5n4)OCCO6)cc3[nH]2)CCC1` [Example 52, N-((2-((((1-Methylcyclobutyl)methyl)amino)methyl)-1H-indol-6-yl)methyl)-9-oxo-2,3-dihydro-9H-[1,4]dioxino[2',3':4,5]pyrido[1,2-a]pyrimidine-7-carboxamide], for which the IC50 is less than 0.01 µM against METTL3/14 and 0.1 to 1 µM in the assay on Kasumi-1 cells.

In the case of `CC1(CNCc2cc3ccc(CNC(=O)c4cc(=O)n5cc6c(cc5n4)OCO6)cc3[nH]2)CC(F)(F)C1` [Example 53, N-((2-((((3,3-Difluoro-1-methylcyclobutyl)methyl)amino)methyl)-1H-indol-6-yl)methyl)-8-oxo-8H-[1,3]dioxolo[4',5':4,5]pyrido[1,2-a]pyrimidine-6-carboxamide], the IC50 against METTL3/14 is less than 0.01 µM; in the assay with Kasumi-1 cells, 0.1 to 1 µM.

In the case of `CC1(CNCc2cc3ccc(CNC(=O)c4cc(=O)n5cc6c(cc5n4)OCCO6)cc3[nH]2)CC(F)(F)C1` [Example 54, N-((2-((((3,3-Difluoro-1-methylcyclobutyl)methyl)amino)methyl)-1H-indol-6-yl)methyl)-9-oxo-2,3-dihydro-9H-[1,4]dioxino[2',3':4,5]pyrido[1,2-a]pyrimidine-7-carboxamide], the half-maximal inhibitory concentration (IC50) at METTL3/14 was less than 0.01 µM; in the assay on Kasumi-1 cells, 0.1 to 1 µM.

On to `[2H]C([2H])(NCc1cc2ccc(CNC(=O)c3cc(=O)n4cc5c(cc4n3)OCO5)cc2[nH]1)C1CCC1` [Example 71, N-((2-(((Cyclobutylmethyl-d2)amino)methyl)-1H-indol-6-yl)methyl)-8-oxo-8H-[1,3]dioxolo[4',5':4,5]pyrido[1,2-a]pyrimidine-6-carboxamide], for which the IC50 was less than 0.01 µM at METTL3/14 and less than 0.1 µM in the assay with Kasumi-1 cells.

With `[2H]C([2H])(NCc1cc2ccc(CNC(=O)c3cc(=O)n4cc5c(cc4n3)OCO5)cc2[nH]1)C12CC(F)(C1)C2` [Example 72, N-((2-((((3-Fluorobicyclo[1.1.1]pentan-1-yl)methyl-d2)amino)methyl)-1H-indol-6-yl)methyl)-8-oxo-8H-[1,3]dioxolo[4',5':4,5]pyrido[1,2-a]pyrimidine-6-carboxamide], the IC50 against METTL3/14 is less than 0.01 µM; in the assay with Kasumi-1 cells, less than 0.1 µM.

Take `O=C(NCc1ccc2cc(CNCC34CC(CO3)C4)[nH]c2c1)c1cc(=O)n2cc3c(cc2n1)OCCO3` [Example 77, N-((2-((((2-oxabicyclo[2.1.1]hexan-1-yl)methyl)amino)methyl)-1H-indol-6-yl)methyl)-9-oxo-2,3-dihydro-9H-[1,4]dioxino[2',3':4,5]pyrido[1,2-a]pyrimidin-7-carboxamide]: the IC50 against METTL3/14 was less than 0.01 µM; in the assay with Kasumi-1 cells it was 0.1 to 1 µM.

Turning to `O=C(NCc1ccc2cc(CNCC34CC(CO3)C4)[nH]c2c1)c1cc(=O)n2cc3c(cc2n1)OCO3` [Example 84, N-((2-((((2-Oxabicyclo[2.1.1]hexan-1-yl)methyl)amino)methyl)-1H-indol-6-yl)methyl)-8-oxo-8H-[1,3]dioxolo[2',3':4,5]pyrido[1,2-a]pyrimidine-6-carboxamide], the IC50 at METTL3/14 is less than 0.01 µM; with Kasumi-1 cells it was 0.1 to 1 µM.

`O=C(NCc1cc2[nH]c(CNCC3CCC3)cc2cc1F)c1cc(=O)n2cc3c(cc2n1)OCCO3` [Example 85, N-((2-(((Cyclobutylmethyl)amino)methyl)-5-fluoro-1H-indol-6-yl)methyl)-9-oxo-2,3-dihydro-9H-[1,4]dioxino[2',3':4,5]pyrido[1,2-a]pyrimidine-7-carboxamide]: the IC50 on METTL3/14 was 0.01 to 0.1 µM; with Kasumi-1 cells, less than 0.1 µM.

On to `O=C(NCc1cc2[nH]c(CNCC34CC(CO3)C4)cc2cc1F)c1cc(=O)n2cc3c(cc2n1)OCCO3` [Example 86, N-((2-((((2-Oxabicyclo[2.1.1]hexan-1-yl)methyl)amino)methyl)-5-fluoro-1H-indol-6-yl)methyl)-9-oxo-2,3-dihydro-9H-[1,4]dioxino[2',3':4,5]pyrido[1,2-a]pyrimidine-7-carboxamide], for which the IC50 was 0.01 to 0.1 µM at METTL3/14 and 0.1 to 1 µM in the assay on Kasumi-1 cells.

With `O=C(NCc1cc2[nH]c(CNCC34CC(CO3)C4)cc2cc1F)c1cc(=O)n2cc3c(cc2n1)OCO3` [Example 87, N-((2-((((2-Oxabicyclo[2.1.1]hexan-1-yl)methyl)amino)methyl)-5-fluoro-1H-indol-6-yl)methyl)-8-oxo-8H-[1,3]dioxolo[2',3':4,5]pyrido[1,2-a]pyrimidine-6-carboxamide], the IC50 against METTL3/14 lay within 0.01 to 0.1 µM; with Kasumi-1 cells, 0.1 to 1 µM.

Broadly, the IC50 is the point on the concentration scale where inhibition reaches its midpoint.
